Results: patent US20160326547A1, “TRANSGENIC PRODUCTION OF HEPARIN” (LFB USA, INC., priority 2013, published 2016)
Entries after “also recorded” stand apart in the source; their conditions may differ.

Columns and labels:
[1] = system: lactating goats; assay: Experiment 2: udder infusion of heparin, toxicity study in lactating goats; type: in vivo, goat
Protocol: A study was conducted to determine if the production of heparin in the mammary gland would also have a significant effect on the producing animal. The protein produced by the transgene can potentially affect the mammary gland directly. In addition, it is known that there is potential leakage of the protein into the systemic system. To assess the potential effects of systemic and infused heparin on the goat, the study outlined below was performed. Blood was drawn and milk collected from each milking animal at least once daily during two experiments to determine the effects of heparin administration relative to systemic and udder infusion routes. The levels of heparin, and clotting times as indicated by aPTT were calculated from blood serum. Milk volumes were measured and heparin levels in the milk were determined. In addition, the quality of the milk (color, consistency, evidence of clumping, blood, or mastitis) was noted. The general health of each animal was assessed daily, including a rectal temperature. Since heparin is an anticoagulant, animals were also inspected daily for any gross signs of bleeding, such as abnormal bruising or petechiae. Six normal, non-transgenic, lactating goats were fed approximately four pounds of specially formulated vegetarian goat feed, per day, and given a combination of timothy and alfalfa hay as well as free access to water and plain and mineralized salt blocks. As these were lactating animals, they were milked daily starting on the day they arrived. The milk volume was measured each day and a rectal temperature recorded Milk volumes and rectal temperatures prior to the first or second experiment can be seen below in Table 7. Animals were manually restrained so that the jugular vein could be identified. A 21-gauge ¾ inch butterfly needle (BD Vacutainer Blood Collection Set Ref 367251, Franklin Lakes, N.J. USA) was inserted into the vessel, and the blood was collected into 2-1.8 ml sodium citrate vacutainer tubes (BD Vacutainer, Buffered Na Citrate, Franklin Lakes, N.J. USA). After collection (or after blood collection and heparin administration—see below) the needle was removed, and pressure was applied at the collection site to stop any bleeding. The animal received positive reinforcement (grain reward) after each procedure. All goats were milked using a portable milking machine, once every day starting the day the goats arrived. Animals were placed on a milking stand for this procedure. The general protocol for milking was as follows. Personnel doing the milking washed their hands thoroughly and donned latex examination gloves. The udder was cleaned using paper towels and water. The udder was then dried using clean paper towels. The teat was cleaned again using alcohol wipes, and pre-dip (FS-106 Sanitizing Teat Dip, IBA Inc., Millbury, Mass. USA) was applied and allowed to dry. A small sample was expressed from the teat by hand to assess milk quality, perform a streak test, and to be frozen for further analysis. The milking machine was then attached to the udder. After milking, the teats were cleaned with alcohol, and post milking disinfectant was applied (Ultra Shield Sanitizing Barrier Teat Dip, IBA Inc., Millbury, Mass. USA). The volume of milk was determined, and the small sample was frozen and stored in a −80° C. chest freezer for subsequent testing. The six milking goats were divided into 3 groups of 2 goats. All goats were milked daily with a milking machine, and had blood samples taken. After milking and blood collection, goats had their udders infused with heparin using a teat infusion cannula (Udder Infusion Cannula, IBA Inc., Millbury, Mass. USA). Each group received either a low (25,000 Units), medium (100,000 Units), or high (500,000 Units) dose of infused heparin, equivalent to the 3 different expression levels being explored on a per liter of milk basis. Volumes infused were less than 50 ml per udder. This protocol was performed for a total of seven days. […]

[2] = system: lactating goats; assay: Experiment 1: systemic (intravenous) administration of heparin, toxicity study in lactating goats; type: in vivo, goat
Protocol: A study was conducted to determine if the production of heparin in the mammary gland would also have a significant effect on the producing animal. The protein produced by the transgene can potentially affect the mammary gland directly. In addition, it is known that there is potential leakage of the protein into the systemic system. To assess the potential effects of systemic and infused heparin on the goat, the study outlined below was performed. Blood was drawn and milk collected from each milking animal at least once daily during two experiments to determine the effects of heparin administration relative to systemic and udder infusion routes. The levels of heparin, and clotting times as indicated by aPTT were calculated from blood serum. Milk volumes were measured and heparin levels in the milk were determined. In addition, the quality of the milk (color, consistency, evidence of clumping, blood, or mastitis) was noted. The general health of each animal was assessed daily, including a rectal temperature. Since heparin is an anticoagulant, animals were also inspected daily for any gross signs of bleeding, such as abnormal bruising or petechiae. Six normal, non-transgenic, lactating goats were fed approximately four pounds of specially formulated vegetarian goat feed, per day, and given a combination of timothy and alfalfa hay as well as free access to water and plain and mineralized salt blocks. As these were lactating animals, they were milked daily starting on the day they arrived. The milk volume was measured each day and a rectal temperature recorded Milk volumes and rectal temperatures prior to the first or second experiment can be seen below in Table 7. Animals were manually restrained so that the jugular vein could be identified. A 21-gauge ¾ inch butterfly needle (BD Vacutainer Blood Collection Set Ref 367251, Franklin Lakes, N.J. USA) was inserted into the vessel, and the blood was collected into 2-1.8 ml sodium citrate vacutainer tubes (BD Vacutainer, Buffered Na Citrate, Franklin Lakes, N.J. USA). After collection (or after blood collection and heparin administration—see below) the needle was removed, and pressure was applied at the collection site to stop any bleeding. The animal received positive reinforcement (grain reward) after each procedure. The animals were restrained as above. The butterfly needle used for blood collection described above is designed so that blood can be collected via a vacutainer blood collection tube, or a syringe can be attached. Thus, after blood collection, the part of the needle that connects with the blood collection tube was removed, and a syringe with heparin was attached and the heparin was slowly injected. An additional 0.4 ml of sterile normal saline was flushed through the needle to ensure that all heparin was delivered. In this way a single needle placement was used for both blood collection and heparin injection, and any additional stress relative to a second venipuncture site was avoided. All goats were milked using a portable milking machine, once every day starting the day the goats arrived. Animals were placed on a milking stand for this procedure. The general protocol for milking was as follows. Personnel doing the milking washed their hands thoroughly and donned latex examination gloves. The udder was cleaned using paper towels and water. The udder was then dried using clean paper towels. […]

[3] = Medium dose udder infusion (100,000 units per liter), Animal 4, days 1-8, day 1
[4] = Medium dose udder infusion (100,000 units per liter), Animal 4, days 1-8, day 2
[5] = Medium dose udder infusion (100,000 units per liter), Animal 4, days 1-8, day 3
[6] = Medium dose udder infusion (100,000 units per liter), Animal 4, days 1-8, day 4
[7] = Medium dose udder infusion (100,000 units per liter), Animal 4, days 1-8, day 5
[8] = Medium dose udder infusion (100,000 units per liter), Animal 4, days 1-8, day 6
[9] = Medium dose udder infusion (100,000 units per liter), Animal 4, days 1-8, day 7
[10] = goat infused with the highest levels
[11] = udder infusion, low or medium dose for a week

**Q.** What does the source list for heparin?
**A.** Milk volume ([1]; Low dose udder infusion (25,000 units/liter), Animal 1, days 1-8 (daily infusion days 1-7), day 1): 2.25 L; Milk volume ([1]; Low dose udder infusion (25,000 units/liter), Animal 1, days 1-8 (daily infusion days 1-7), day 3): 2.2 L; Milk volume ([1]; Low dose udder infusion (25,000 units/liter), Animal 1, days 1-8 (daily infusion days 1-7), day 4): 2.0 L; Milk volume ([1]; Low dose udder infusion (25,000 units/liter), Animal 1, days 1-8 (daily infusion days 1-7), day 5): 1.9 L; Milk volume ([1]; Low dose udder infusion (25,000 units/liter), Animal 1, days 1-8 (daily infusion days 1-7), day 6): 1.8 L; Milk volume ([1]; Low dose udder infusion (25,000 units/liter), Animal 1, days 1-8 (daily infusion days 1-7), day 7): 1.7 L; aPTT time ([1]; Low dose udder infusion (25,000 units/liter), Animal 1, days 1-8, day 1): 23.2 s; aPTT time ([1]; Low dose udder infusion (25,000 units/liter), Animal 1, days 1-8, day 2): 36 s; aPTT time ([1]; Low dose udder infusion (25,000 units/liter), Animal 1, days 1-8, day 3): 37 s; aPTT time ([1]; Low dose udder infusion (25,000 units/liter), Animal 1, days 1-8, day 4): 34.9 s; aPTT time ([1]; Low dose udder infusion (25,000 units/liter), Animal 1, days 1-8, day 5): 34.5 s; aPTT time ([1]; Low dose udder infusion (25,000 units/liter), Animal 1, days 1-8, day 6): 34.6 s; aPTT time ([1]; Low dose udder infusion (25,000 units/liter), Animal 1, days 1-8, day 7): 33.5 s; aPTT time ([1]; Low dose udder infusion (25,000 units/liter), Animal 1, days 1-8, day 8): 33.1 s; Milk volume ([1]; Medium dose udder infusion (100,000 units per liter), Animal 2, days 1-8, day 1): 2 L; Milk volume ([1]; Medium dose udder infusion (100,000 units per liter), Animal 2, days 1-8, day 2): 1.35 L; Milk volume ([1]; Medium dose udder infusion (100,000 units per liter), Animal 2, days 1-8, day 3): 1.5 L; Milk volume ([1]; Medium dose udder infusion (100,000 units per liter), Animal 2, days 1-8, day 4): 1.6 L; Milk volume ([1]; Medium dose udder infusion (100,000 units per liter), Animal 2, days 1-8, day 5): 1.3 L; Milk volume ([1]; Medium dose udder infusion (100,000 units per liter), Animal 2, days 1-8, day 6): 1.2 L; Milk volume ([1]; Medium dose udder infusion (100,000 units per liter), Animal 2, days 1-8, day 7): 1.25 L; Milk volume ([1]; Medium dose udder infusion (100,000 units per liter), Animal 2, days 1-8, day 8): 1.75 L; Milk volume [1, 3]: 3.25 L; aPTT time [1, 3]: 24.7 s; Milk volume [1, 4]: 2.75 L; aPTT time [1, 4]: 32.7 s; Milk volume [1, 5]: 2.5 L; aPTT time [1, 5]: 44 s; Milk volume [1, 6]: 1.9 L; aPTT time [1, 6]: 30.2 s; Milk volume [1, 7]: 2.2 L; aPTT time [1, 7]: 42.4 s; Milk volume [1, 8]: 2.0 L; aPTT time [1, 8]: 42.1 s; Milk volume [1, 9]: 2.25 L; aPTT time [1, 9]: 22.9 s; aPTT time ([1]; Medium dose udder infusion (100,000 units per liter), Animal 4, days 1-8, day 8): 29.8 s; Milk volume during heparin infusion into the udder ([1]; all infusion levels): initial drop in milk volume; Milk production [1, 10]: dramatic decrease in milk production; Udder response [1, 10]: inflammatory response; aPTT ([1]; high levels of infused heparin): dramatically increased; Goat health and milk production ([1]; low and medium doses of systemic and infused heparin (overall conclusion)): minimal effects; aPTT ([1]; single daily udder infusions of low or medium dose for a week): ≤ 55 s; Systemic effects ([1]; udder infusion of the highest levels): high body temperature and increased respiratory sounds; Body temperature [1, 11]: little effect; Signs of bleeding [1, 11]: did not produce any signs of bleeding; aPTT during washout period after heparin udder infusion ([1]; washout after udder infusion): 20 to 40 s; aPTT ([2]; High dose (31,000 Units IV TID), noon and 4 PM samples, above instrument maximum): > 124 s; aPTT overnight between the two high doses ([2]; High dose IV, second High AM sample prior to AM dose): low 40's; also recorded: dropped to more normal levels overnight; Lung sounds ([2]; High dose IV, second day, noon and 4 PM examinations): increase in lung sounds in one animal; Petechiae or abnormal bleeding ([2]; IV heparin over 6 days, any dose): no obvious gross signs of bleeding; also recorded: no evidence of petechiae or abnormal bleeding; Milk volumes and body temperatures ([2]; any IV dose): little, if any, effect; also recorded: not affected
